Measurements from patent publication US6599931B1, “Test system for characterizing the compatibility of bioactive substances and polyvinylpyrrolidone” (Abbott GmbH & Co. KG, priority 1998, dated 2003).

Tests used:
[1] = Dissolving and recrystallization behavior of active ingredient in 1,3-bis(1-pyrrolidonyl)butane (DHVP) test system; settings: for RT: solution in DHVP: room temperature; for Sol. at (temperature at which solution forms): heated; for solubility in DHVP: comparison
Description: The ratios of the amounts can in principle be chosen without restriction and naturally depend essentially on the properties of the active ingredient. However, it is advisable to choose the concentration ranges in the test system so that they correspond to active ingredient contents typical of extruded forms, that is to say generally from 0.1 to 70, preferably 10 to 30% by weight of active ingredient, based on the total weight of the test system. However, it is also possible in the individual case to prepare solutions or dispersions with a concentration of 60% by weight or even higher. It is preferred to carry out test series with increasing active ingredient contents. The active ingredient(s) are weighed out, mixed with the appropriate amounts of DHVP and preferably stirred, normally with a typical laboratory magnetic stirrer at 5 to 200 rpm. […] The heating is preferably carried out so as to correspond approximately to the heating rate in a subsequent melt formulation, that is to say at 0.5 to 5° C./min. The test system is preferably heated to a maximum of 140° C. However, it is also possible in the individual case to heat to the boiling point of DHVP. The test system is then allowed to cool to room temperature.
The prepared test systems are assessed spectroscopically. […] The recrystallization behavior is also assessed. The recrystallization behavior immediately after cooling to room temperature is an important criterion especially for test systems in which the active ingredient has been induced to dissolve by heating.
leaving to stand at room temperature for 24 hours
Investigation is always of whether the active ingredient has recrystallized out of the solution.

[2] = Melt extrudate with PVP K 30: formation of solid solution; format: physicochemical; settings: for Extrudate: solution (solid): 30% by weight in PVP, melt extrudate with PVP K 30; for solid solution with PVP: comparison
[3] = Solubility in DMSO (comparison)

Row | Structure (SMILES) | Recryst. (recrystallization) ([1]; 10% by weight in DHVP) | RT: solution in DHVP ([1]; 10% by weight in DHVP) | Recryst. after (time to recrystallization) ([1]; 30% by weight in DHVP) [h] | Sol. at (temperature at which solution forms) ([1]; 30% by weight in DHVP) | RT: solution in DHVP ([1]; 30% by weight in DHVP) | Extrudate: solution (solid) [2] | Sol. at (temperature at which solution forms) ([1]; 10% by weight in DHVP) | solubility in DHVP [1] | solid solution with PVP [2] | solubility in DMSO (dimethyl sulfoxide) [3] | Recryst. (recrystallization) ([1]; 30% by weight in DHVP)
1 | CN(C)CCOC1=Cc2ccccc2Sc2ccc(Cl)cc21 [Zotepine] | Recryst.: − | RT: + | 40 | Sol. at 70 °C | RT: − | + |  |  |  |  | 
2 | COc1ccc(CCN(C)CCCC(C#N)(c2cc(OC)c(OC)c(OC)c2)C(C)C)cc1OC.Cl (stereo not shown) [Gallopamil HCl] | Recryst.: − | RT: + | 96 | Sol. at 60 °C | RT: − | + | Sol. at 60 °C |  |  |  | 
3 | Cn1c(=O)c2[nH]cnc2n(C)c1=O [Theophylline] |  |  |  |  |  |  |  | insoluble | no solid solution | soluble | 
4 | CCS(=O)(=O)Oc1ccc2c(C)c(C)c(=O)oc2c1 [Esuprone] | Recryst.: − | RT: + | 20 | Sol. at 70 °C | RT: − | + |  |  |  |  | 
5 | CC(=O)Nc1ccc(O)cc1 [Paracetamol] | Recryst.: − | RT: − |  | Sol. at 90 °C | RT: − | + | Sol. at 90 °C |  |  |  | Recryst.: −
6 | CC(C)Cc1ccc(C(C)C(=O)O)cc1 (stereo not shown) [Ibuprofen] | Recryst.: − | RT: + |  |  | RT: + | + |  | soluble | solid solution | soluble | Recryst.: −
